# Key:
# Assay in all cases: biochemical
# Format in all cases: biochemical
# 382 unique human kinases [1] = target: T1, 382 unique human kinases (Homo sapiens, UniProt O15264); settings: P38d/MAPK13, 10 uM; for remaining activity at 10 µM: read-out: % Enzyme Activity (relative to DMSO controls)
# T1 construct: purchased Reaction Biology (HotSpot contract assay)
# T1 sequence (O15264 1-365): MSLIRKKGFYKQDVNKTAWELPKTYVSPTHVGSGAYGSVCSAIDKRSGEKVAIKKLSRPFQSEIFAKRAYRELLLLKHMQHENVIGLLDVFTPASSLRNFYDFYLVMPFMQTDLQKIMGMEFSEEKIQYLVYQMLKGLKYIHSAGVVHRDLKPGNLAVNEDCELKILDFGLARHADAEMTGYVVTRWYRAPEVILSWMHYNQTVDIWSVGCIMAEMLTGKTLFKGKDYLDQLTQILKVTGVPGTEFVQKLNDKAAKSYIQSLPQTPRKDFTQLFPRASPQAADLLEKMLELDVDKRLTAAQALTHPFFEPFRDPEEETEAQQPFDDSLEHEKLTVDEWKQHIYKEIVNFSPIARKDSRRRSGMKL
# 382 unique human kinases [2] = target: T2, 382 unique human kinases (Homo sapiens, UniProt Q8TD19); settings: NEK9, 10 uM; for remaining activity at 10 µM: read-out: % Enzyme Activity (relative to DMSO controls)
# T2 construct: purchased Reaction Biology (HotSpot contract assay)
# T2 sequence (Q8TD19 1-979): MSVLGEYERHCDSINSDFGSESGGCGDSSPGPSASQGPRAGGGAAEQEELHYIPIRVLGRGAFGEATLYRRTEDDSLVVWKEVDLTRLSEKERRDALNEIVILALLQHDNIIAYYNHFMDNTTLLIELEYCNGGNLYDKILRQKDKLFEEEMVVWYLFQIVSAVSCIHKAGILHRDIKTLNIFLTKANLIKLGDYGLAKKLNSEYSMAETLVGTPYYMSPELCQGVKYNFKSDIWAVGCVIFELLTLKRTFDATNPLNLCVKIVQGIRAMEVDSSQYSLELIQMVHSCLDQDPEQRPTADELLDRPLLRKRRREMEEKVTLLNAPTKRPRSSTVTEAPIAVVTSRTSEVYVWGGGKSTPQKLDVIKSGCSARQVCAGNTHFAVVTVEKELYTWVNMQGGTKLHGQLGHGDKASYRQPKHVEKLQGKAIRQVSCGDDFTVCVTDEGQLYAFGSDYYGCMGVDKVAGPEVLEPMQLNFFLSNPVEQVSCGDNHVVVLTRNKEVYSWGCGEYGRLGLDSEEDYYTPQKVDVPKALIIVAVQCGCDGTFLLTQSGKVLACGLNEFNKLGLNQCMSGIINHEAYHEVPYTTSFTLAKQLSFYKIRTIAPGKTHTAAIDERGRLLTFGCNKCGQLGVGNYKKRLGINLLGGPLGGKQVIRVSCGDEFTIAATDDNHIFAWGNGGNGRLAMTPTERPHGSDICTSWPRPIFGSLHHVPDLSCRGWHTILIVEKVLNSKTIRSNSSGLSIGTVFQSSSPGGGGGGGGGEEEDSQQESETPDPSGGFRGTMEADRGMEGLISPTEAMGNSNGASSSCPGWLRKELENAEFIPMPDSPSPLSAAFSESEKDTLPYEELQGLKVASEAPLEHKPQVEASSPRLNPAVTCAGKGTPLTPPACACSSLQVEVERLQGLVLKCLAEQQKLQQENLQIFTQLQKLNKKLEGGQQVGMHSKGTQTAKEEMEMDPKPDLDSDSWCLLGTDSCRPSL
# 382 unique human kinases [3] = target: T3, 382 unique human kinases (Homo sapiens, UniProt Q8TDX7); settings: NEK7, compound at 10 uM, duplicate values; for remaining activity at 10 µM: read-out: % Enzyme Activity (relative to DMSO controls)
# T3 construct: purchased Reaction Biology (HotSpot contract assay)
# 382 unique human kinases [4] = target: T4, 382 unique human kinases (Homo sapiens, UniProt P00519, E255V); settings: ABL1 (E255V), [ATP] 10 µM, compound 10 uM; for remaining activity at 10 µM: read-out: % Enzyme Activity (relative to DMSO controls)
# T4 construct: purchased Reaction Biology (HotSpot contract assay)
# 382 unique human kinases [5] = target: T5, 382 unique human kinases (Homo sapiens, UniProt P00533, DEL752-759); settings: EGFR (d752-759), 10 uM; for remaining activity at 10 µM: read-out: % Enzyme Activity (relative to DMSO controls)
# T5 construct: purchased Reaction Biology (HotSpot contract assay)
# 382 unique human kinases [6] = target: T6, 382 unique human kinases (Homo sapiens, UniProt P51957); settings: NEK4, 10 uM; for remaining activity at 10 µM: read-out: % Enzyme Activity (relative to DMSO controls)
# T6 construct: purchased Reaction Biology (HotSpot contract assay)
# 382 unique human kinases [7] = target: T7, 382 unique human kinases (Homo sapiens, UniProt P54764); settings: EPHA4, [ATP] 30 µM, compound 10 uM; for remaining activity at 10 µM: read-out: % Enzyme Activity (relative to DMSO controls)
# T7 construct: purchased Reaction Biology (HotSpot contract assay)
# 382 unique human kinases [8] = target: T8, 382 unique human kinases (Homo sapiens, UniProt Q14680); settings: MELK, [ATP] 50 µM, compound 10 uM; for remaining activity at 10 µM: read-out: % Enzyme Activity (relative to DMSO controls)
# T8 construct: purchased Reaction Biology (HotSpot contract assay)
# 382 unique human kinases [9] = target: T9, 382 unique human kinases (Homo sapiens, UniProt Q15119); settings: PDK2/PDHK2, [ATP] 15 µM
# T9 construct: purchased Reaction Biology (HotSpot contract assay)
# 382 unique human kinases [10] = target: T10, 382 unique human kinases (Homo sapiens, UniProt Q16584); settings: MLK3/MAP3K11, 10 uM; for remaining activity at 10 µM: read-out: % Enzyme Activity (relative to DMSO controls)
# T10 construct: purchased Reaction Biology (HotSpot contract assay)
# [11] = compound 10 uM, read-out: % Enzyme Activity (relative to DMSO controls)
# T6 sequence (P51957 whole entry): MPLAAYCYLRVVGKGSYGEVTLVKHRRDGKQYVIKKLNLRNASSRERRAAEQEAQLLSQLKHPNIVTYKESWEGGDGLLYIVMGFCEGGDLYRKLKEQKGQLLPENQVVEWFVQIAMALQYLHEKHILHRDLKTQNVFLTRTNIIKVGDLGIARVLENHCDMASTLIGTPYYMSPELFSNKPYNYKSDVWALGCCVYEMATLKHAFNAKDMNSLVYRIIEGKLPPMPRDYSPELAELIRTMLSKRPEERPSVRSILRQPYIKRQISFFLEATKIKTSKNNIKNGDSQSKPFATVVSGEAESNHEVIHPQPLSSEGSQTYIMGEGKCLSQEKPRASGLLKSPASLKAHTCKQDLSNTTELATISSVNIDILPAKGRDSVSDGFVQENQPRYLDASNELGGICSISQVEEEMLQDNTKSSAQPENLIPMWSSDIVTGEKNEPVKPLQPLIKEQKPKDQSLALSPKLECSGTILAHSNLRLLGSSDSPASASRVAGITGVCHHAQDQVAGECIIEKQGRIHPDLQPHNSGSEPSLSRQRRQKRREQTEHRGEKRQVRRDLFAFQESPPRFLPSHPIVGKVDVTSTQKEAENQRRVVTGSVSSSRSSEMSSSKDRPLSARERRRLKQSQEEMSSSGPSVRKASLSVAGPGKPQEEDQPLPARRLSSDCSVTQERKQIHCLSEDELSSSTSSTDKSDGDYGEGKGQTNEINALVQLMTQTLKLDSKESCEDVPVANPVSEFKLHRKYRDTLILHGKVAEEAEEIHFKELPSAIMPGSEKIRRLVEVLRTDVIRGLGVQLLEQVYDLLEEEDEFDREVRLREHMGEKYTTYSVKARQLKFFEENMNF
# T8 sequence (Q14680 whole entry): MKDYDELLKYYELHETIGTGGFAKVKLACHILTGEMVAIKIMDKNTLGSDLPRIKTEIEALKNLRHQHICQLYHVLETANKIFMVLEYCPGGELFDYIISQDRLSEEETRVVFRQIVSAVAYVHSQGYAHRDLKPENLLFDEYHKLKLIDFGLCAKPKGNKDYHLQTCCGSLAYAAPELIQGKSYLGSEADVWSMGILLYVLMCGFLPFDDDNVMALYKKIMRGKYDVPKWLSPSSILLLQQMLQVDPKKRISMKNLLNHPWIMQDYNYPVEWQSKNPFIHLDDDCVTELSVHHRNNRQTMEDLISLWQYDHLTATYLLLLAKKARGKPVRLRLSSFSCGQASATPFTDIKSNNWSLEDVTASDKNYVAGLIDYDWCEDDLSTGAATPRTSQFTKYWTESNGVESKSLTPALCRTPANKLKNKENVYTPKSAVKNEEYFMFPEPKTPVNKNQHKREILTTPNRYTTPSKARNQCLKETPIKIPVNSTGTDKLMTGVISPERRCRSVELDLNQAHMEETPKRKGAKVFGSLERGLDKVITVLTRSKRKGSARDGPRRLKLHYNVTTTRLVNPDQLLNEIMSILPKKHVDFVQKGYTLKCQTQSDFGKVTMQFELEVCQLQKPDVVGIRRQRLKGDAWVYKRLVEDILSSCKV
# T10 sequence (Q16584 whole entry): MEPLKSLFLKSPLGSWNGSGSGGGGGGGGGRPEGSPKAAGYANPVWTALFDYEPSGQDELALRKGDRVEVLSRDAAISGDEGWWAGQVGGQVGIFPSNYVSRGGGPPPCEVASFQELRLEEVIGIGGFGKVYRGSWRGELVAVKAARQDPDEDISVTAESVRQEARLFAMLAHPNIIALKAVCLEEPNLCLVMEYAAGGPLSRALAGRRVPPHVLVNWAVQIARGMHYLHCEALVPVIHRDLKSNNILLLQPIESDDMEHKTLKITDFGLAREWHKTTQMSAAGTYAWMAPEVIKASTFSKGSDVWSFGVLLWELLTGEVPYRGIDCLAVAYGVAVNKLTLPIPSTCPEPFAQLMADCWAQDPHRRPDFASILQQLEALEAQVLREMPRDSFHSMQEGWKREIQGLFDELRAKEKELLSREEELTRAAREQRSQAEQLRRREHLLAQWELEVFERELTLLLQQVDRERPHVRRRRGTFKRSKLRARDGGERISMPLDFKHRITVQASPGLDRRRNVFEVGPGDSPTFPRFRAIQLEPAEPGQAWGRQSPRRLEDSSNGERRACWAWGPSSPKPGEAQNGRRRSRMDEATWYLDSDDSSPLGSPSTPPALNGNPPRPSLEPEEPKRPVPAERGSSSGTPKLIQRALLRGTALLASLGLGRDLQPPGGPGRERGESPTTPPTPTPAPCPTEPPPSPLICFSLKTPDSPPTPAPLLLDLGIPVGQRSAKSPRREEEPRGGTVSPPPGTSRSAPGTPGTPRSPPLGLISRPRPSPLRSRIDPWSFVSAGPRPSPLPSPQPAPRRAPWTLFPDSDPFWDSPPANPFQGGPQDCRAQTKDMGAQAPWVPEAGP
# T7 sequence (P54764 20-986): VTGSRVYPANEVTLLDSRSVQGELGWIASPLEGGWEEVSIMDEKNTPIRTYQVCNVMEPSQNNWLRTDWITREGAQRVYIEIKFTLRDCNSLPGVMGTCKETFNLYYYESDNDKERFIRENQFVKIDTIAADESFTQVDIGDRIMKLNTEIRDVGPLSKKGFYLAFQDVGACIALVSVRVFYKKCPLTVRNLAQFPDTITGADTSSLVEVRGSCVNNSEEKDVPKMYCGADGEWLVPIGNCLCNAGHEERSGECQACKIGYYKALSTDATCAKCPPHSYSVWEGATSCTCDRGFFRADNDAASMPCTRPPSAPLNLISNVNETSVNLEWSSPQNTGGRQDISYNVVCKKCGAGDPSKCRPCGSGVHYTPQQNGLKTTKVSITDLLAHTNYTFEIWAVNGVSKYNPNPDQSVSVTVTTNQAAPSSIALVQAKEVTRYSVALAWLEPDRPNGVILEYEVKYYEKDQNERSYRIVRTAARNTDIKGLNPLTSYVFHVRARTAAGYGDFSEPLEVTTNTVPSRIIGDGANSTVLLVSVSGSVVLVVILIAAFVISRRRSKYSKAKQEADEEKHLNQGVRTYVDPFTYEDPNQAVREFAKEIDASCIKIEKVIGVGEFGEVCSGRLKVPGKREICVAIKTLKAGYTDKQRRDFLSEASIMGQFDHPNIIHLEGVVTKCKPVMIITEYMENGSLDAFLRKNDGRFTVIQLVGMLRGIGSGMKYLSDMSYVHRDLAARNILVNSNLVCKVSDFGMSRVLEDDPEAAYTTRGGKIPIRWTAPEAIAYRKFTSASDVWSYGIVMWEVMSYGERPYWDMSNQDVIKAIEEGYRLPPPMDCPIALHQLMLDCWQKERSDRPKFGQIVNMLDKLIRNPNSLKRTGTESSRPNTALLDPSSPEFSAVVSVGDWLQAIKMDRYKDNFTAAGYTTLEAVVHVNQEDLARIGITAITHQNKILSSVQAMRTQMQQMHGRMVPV
# T4 sequence (P00519 whole entry E255V): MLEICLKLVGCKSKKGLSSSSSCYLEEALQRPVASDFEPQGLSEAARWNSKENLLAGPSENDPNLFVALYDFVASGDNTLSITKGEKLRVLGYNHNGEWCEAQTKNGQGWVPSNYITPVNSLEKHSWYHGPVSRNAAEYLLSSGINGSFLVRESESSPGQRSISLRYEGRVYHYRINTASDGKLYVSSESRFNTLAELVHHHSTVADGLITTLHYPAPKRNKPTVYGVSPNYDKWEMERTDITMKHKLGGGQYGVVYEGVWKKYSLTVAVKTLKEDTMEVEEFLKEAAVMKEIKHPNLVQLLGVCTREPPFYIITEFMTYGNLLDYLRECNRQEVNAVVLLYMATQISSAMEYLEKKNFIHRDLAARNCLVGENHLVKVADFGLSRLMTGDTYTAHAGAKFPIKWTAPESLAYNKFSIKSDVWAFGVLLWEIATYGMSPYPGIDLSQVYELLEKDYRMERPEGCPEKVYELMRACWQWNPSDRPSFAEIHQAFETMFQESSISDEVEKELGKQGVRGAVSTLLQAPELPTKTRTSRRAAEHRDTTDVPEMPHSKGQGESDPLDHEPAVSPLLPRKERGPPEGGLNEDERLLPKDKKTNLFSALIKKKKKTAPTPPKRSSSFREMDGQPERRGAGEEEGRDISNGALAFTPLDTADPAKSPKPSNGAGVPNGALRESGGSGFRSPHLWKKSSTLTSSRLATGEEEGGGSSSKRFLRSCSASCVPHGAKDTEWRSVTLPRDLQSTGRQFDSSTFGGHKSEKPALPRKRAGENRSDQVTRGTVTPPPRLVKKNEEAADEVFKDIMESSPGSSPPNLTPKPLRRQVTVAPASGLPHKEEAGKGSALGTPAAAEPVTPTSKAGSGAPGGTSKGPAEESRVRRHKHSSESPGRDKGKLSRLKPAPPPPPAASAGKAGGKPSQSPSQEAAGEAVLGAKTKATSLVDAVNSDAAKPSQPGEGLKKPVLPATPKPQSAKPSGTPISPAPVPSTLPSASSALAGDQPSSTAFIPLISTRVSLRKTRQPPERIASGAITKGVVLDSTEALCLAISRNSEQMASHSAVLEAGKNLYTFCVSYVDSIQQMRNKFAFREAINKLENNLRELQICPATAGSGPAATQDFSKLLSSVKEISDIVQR
# T3 sequence (Q8TDX7 whole entry): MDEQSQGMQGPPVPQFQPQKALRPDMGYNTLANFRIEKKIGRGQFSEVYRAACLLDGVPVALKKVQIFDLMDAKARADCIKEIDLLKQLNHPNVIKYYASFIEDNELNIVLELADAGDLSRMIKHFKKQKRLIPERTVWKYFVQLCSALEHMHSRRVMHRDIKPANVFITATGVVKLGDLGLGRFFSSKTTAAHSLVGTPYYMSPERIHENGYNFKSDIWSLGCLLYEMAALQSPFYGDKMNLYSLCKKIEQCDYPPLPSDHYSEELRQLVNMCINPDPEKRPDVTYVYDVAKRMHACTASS
SMILES,remaining activity at 10 µM (382 unique human kinases [1]),remaining activity at 10 µM (382 unique human kinases [2]),remaining activity at 10 µM (382 unique human kinases [3]),remaining activity at 10 µM (382 unique human kinases [4]),remaining activity at 10 µM (382 unique human kinases [5]),remaining activity at 10 µM (382 unique human kinases [6]),remaining activity at 10 µM (382 unique human kinases [7]),remaining activity at 10 µM (382 unique human kinases [8]),remaining activity at 10 µM (382 unique human kinases [9]; [11]),remaining activity at 10 µM (382 unique human kinases [10]),further results
CC(C)c1cc(-c2n[nH]c(=O)n2-c2ccc3c(ccn3C)c2)c(O)cc1O [Ganetespib (STA9090)],83.5%,62.5%,113%,–,–,–,–,–,–,–,–
CCNC(=O)c1noc(-c2cc(C(C)C)c(O)cc2O)c1-c1ccc(CN2CCOCC2)cc1 [Luminespib],–,–,–,9.81%,99.4%,95.4%,91.1%,56.9%,22.4%,104%,% Enzyme Activity (relative to DMSO controls) (382 unique human kinases [4]): 9.69%; % Enzyme Activity (relative to DMSO controls) (382 unique human kinases [5]): 98.01%; % Enzyme Activity (relative to DMSO controls) (382 unique human kinases [6]): 95.18%; % Enzyme Activity (relative to DMSO controls) (382 unique human kinases [7]): 90.78%; % Enzyme Activity (relative to DMSO controls) (382 unique human kinases [8]): 56.86%; % Enzyme Activity (relative to DMSO controls) (382 unique human kinases [9]; compound 10 uM): 20.58%; % Enzyme Activity (relative to DMSO controls) (382 unique human kinases [10]): 103.89%
CCNC(=O)c1noc(-c2cc(C(C)C)c(O)cc2O)c1-c1ccc(CN2CCOCC2)cc1 [Luminespib (AUY-922)],86.8%,73%,116%,–,–,–,–,–,–,–,% Enzyme Activity (relative to DMSO controls) (382 unique human kinases [1]): 86.84%; % Enzyme Activity (relative to DMSO controls) (382 unique human kinases [2]): 72.56%; % Enzyme Activity (relative to DMSO controls) (382 unique human kinases [3]): 116.20%
CC(C)c1cc(-c2n[nH]c(=O)n2-c2ccc3c(ccn3C)c2)c(O)cc1O [Ganetespib],–,–,–,9.72%,103%,95.1%,49%,44.5%,11.2%,91%,"remaining activity at 1 µM (382 unique human kinases [9]; compound 1 uM, read-out: % Enzyme Activity (relative to DMSO controls)): 41.9%"

# — paper PMC8550792, “Evolution of kinase polypharmacology across HSP90 drug discovery” (Cell Chemical Biology, 2021)
